The test system of one assay is Vero. In words: Cytotoxicity against african green monkey Vero cells by MTT assay. It is filed as cell-based. Particulars: Chlorocebus sabaeus.
The subject of assay [1] is Plasmodium falciparum. In words: Antiplasmodial activity against chloroquine-resistant Plasmodium falciparum Dd2. It is filed as functional, organism-based.
The subject of assay [2] is Plasmodium falciparum. Briefly: Antiplasmodial activity against chloroquine-susceptible Plasmodium falciparum D10. It is filed as functional, organism-based.

In brackets after ≈: the same amount, converted by molar mass.

`CCN(CC)CCCC(C)Nc1ccnc2cc(Cl)ccc12` (stereo not given) [CHLOROQUINE] displayed a 50% inhibitory concentration (IC50) with Vero of 48.5 µg/mL (≈ 152 µM). With `O=c1c(O)c(-c2ccc(O)c(O)c2)oc2cc(O)cc(O)c12` [QUERCETIN], the IC50 in the assay with Vero is 110 µg/mL (≈ 364 µM); with Plasmodium falciparum [1] it was 2.4 µg/mL (≈ 7.94 µM). For the compound `COc1ccc(-c2oc3cc(O)cc(O)c3c(=O)c2O)cc1O` [TAMARIXETIN], the IC50 with Plasmodium falciparum [2] stood at 1.1 µg/mL (≈ 3.48 µM); in the assay on Vero it was 170 µg/mL (≈ 538 µM).

As usually defined, the IC50 is the concentration that inhibits the measured activity by half.

For the origin of these results see ChEMBL document CHEMBL1154131, “Bioactive diterpenes and other constituents of Croton steenkampianus” (J Nat Prod, 2008).
